Data reported in patent US9522910B2, “Protein kinase inhibitors (variants), use thereof in treating oncological diseases and a pharmaceutical composition based thereon” (Obshchestvo s ogranichennoy otvetstvennostyou “Fusion …, priority 2011, dated 2016).

Key:
MV4-11 cells = assay: Animal model of acute myelogenous leukemia (MV4-11 tumors in SCID mice); format: in vivo, mouse; details: 30 mg/kg; end of the therapy (20 days); ratio of mean tumor volume in therapeutic and control groups
Experimental: MV4-11 cells (1×10^7 in serum-free medium) were subcutaneously injected in right flank of SCID female mice. When tumor volume achieved ˜200 mm^3 mice were separated into two groups: control and therapeutic. Control group mice received 0.3 ml of 0.5% methylcellulose solution, therapeutic group received 0.3 ml of 0.5% methylcellulose with suspended therapeutic compound. Tumor volume (mm^3) was calculated as follows: V=L×W^2×0.5, where L—tumor length in mm, W—width in mm. Ratio of the mean tumor volume in therapeutic and control groups (% T/C) on the end of the therapy (20 days) was used to evaluate efficacy of tumor growth inhibition. Obtained data was subjected to statistical reliability Dunnet test. Efficacies of tested compounds in 30 mg/kg dose are depicted in Table 3.

A549 cells = assay: Animal model of non-small cell lung cancer (A549 tumors in nude mice); format: in vivo, mouse; details: 30 mg/kg, oral gavage; end of the therapy (20 days); ratio of mean tumor volume in therapeutic and control groups
Experimental: Male nude mice were used for this experiment. A549 cells (1×10^7) in 0.2 ml of Matrigel (BD Pharmingen) solution were injected in left mice leg upon ketamine-xylazine anesthesia. After a week of cell inoculation mice were separated into control and therapeutic groups. Control group mice received 0.3 ml of 0.5% methylcellulose solution, therapeutic group received 0.3 ml of 0.5% methylcellulose with suspended therapeutic compound (30 mg/kg). Tumor volume (mm^3) was calculated as follows: V=L×W^2×0.5. Compounds were administered using oral gavage. Treatment continued for 20 days. Ratio of the mean tumor volume in therapeutic and control groups (% T/C) was used to evaluate efficacy of tumor growth inhibition upon the end of the therapy (20 days). Obtained data was subjected to statistical reliability Dunnet test. Efficacies of tested compounds in 30 mg/kg dose are depicted in Table 5.

Abl (T315I) = Abl (T315I) (Homo sapiens (Human), UniProt P00519, T315I); assay: Kinase inhibition assay (33P transfer to plate-bound substrate), Abl (T315I); format: biochemical; details: compound concentration that causes 2-times reduction of kinase enzymatic activity
Description: (§1) Kinases as either kinase domain or full construct fused to glutathione S-transferase (GST) or poly-Histidine tagged fusion proteins were expressed in baculovrius-infected insect cells (e.g. Sf21) or in E. Coli. They are purified to near homogeneity by affinity chromatography as previously described (Lehr et al., Production, purification and characterization of non-myristylated human T-cell protein tyrosine kinase in a baculovirus expression system, Gene, 1996; 169(2), 275-279; Gish et al., Bacterial expression, purification and preliminary kinetic description of the kinase domain of v-fps, Protein Eng. 8, 6, 609-614). In some instances, kinases are co-expressed or mixed with purified or partially purified regulatory polypeptides prior to measurement of activity.
(§2) Kinase activity and inhibition was measured by established protocols (see e.g. Braunwalder et al., A Solid-Phase Assay for the Determination of Protein Tyrosine Kinase Activity of c-src Using Scintillating Microtitration Plates, Anal Biochem. 234, 1, 23-26). In such cases, the transfer of ^33PO4 from ATP to the synthetic substrates poly(Glu, Tyr) 4:1 or poly(Arg, Ser) 3:1 attached to the bioactive surface of microtiter plates is taken as a measure of enzyme activity. After an incubation period, the amount of phosphate transferred is measured by first washing the plate with 0.5% phosphoric acid, adding liquid scintillant, and then counting in a liquid scintillation detector. The IC50 is determined by the concentration of compound that causes a 50% reduction in the amount of ^33P incorporated onto the substrate bound to the plate.

[1] = test system: K562 human chronic myelogenous leukemia cells; assay: Antiproliferative activity on K562 cells (MTT); format: cell-based; details: K562, 72 h, compound concentration that causes 2-times reduction of viable cells, 3 days
Experimental: Moreover, antiproliferative activity of the compounds of the present invention can be studied on K562 human chronic myelogenous leukemia cells.
Human myelogenous leukemia K562 cells K562 were cultivated in RPMI 1640 growth medium. K562 cells were transferred to 96-well plated in duplicated (final concentration 2×10^4 cells/ml) and testing compound solution in growth medium was added at different concentrations (final volume is 100 μl per well). Solid compounds were first dissolved in DMSO, then the solution was diluted with DMSO to necessary concentration, mixed with equal volume of growth medium and was transferred to cell plates. The final compound concentrations of compounds was 0.5 nM to 10 μM. DMSO at same percentage is used as control. After compound was incubated with cells for 3 days, the numbers of active cells are measured. It was achieved by removing old medium, addition of 100 μl of fresh medium and 20 μl MIT solution containing 5 mg/ml PBS. Plates was incubated for 2 h at 37° C., then 100 μl DMSO was added at each well and stirred for 1 min. Then the absorbance was measured at 570 nm and percent of proliferation inhibition related to the control (without testing compounds) was determined.

Abl = Abl (Homo sapiens (Human), UniProt P00519); assay: Kinase inhibition assay (33P transfer to plate-bound substrate), Abl; format: biochemical; details: compound concentration that causes 2-times reduction of kinase enzymatic activity
Description: as §1, §2

HCT116 cells = assay: Animal model of solid intestine tumors (HCT116 tumors in SCID mice); format: in vivo, mouse; details: 30 mg/kg; end of the therapy (20 days); ratio of mean tumor volume in therapeutic and control groups
Experimental: 200 μl of HCT116 cells (2.5×10^7 cells/ml) were subcutaneously injected in right flank of SCID mice. When tumor volume achieved ˜200 mm^3 mice were randomized and separated into two groups: control and therapeutic. Control group mice received 0.3 ml of 0.5% methylcellulose solution, therapeutic group received 0.5% methylcellulose with suspended therapeutic compound (30 mg/kg). Twice a week animals animal weight, toxic effects and tumor volume were measured. Experiment was stopped upon tumor reached volume of 1200 mm3 of when animal lost 10% of body weight, or 20% of body weight upon 2 consecutive weightings. Ratio of the mean tumor volume in therapeutic and control groups (% T/C) was used to evaluate efficacy of tumor growth inhibition upon the end of the therapy (20 days). Obtained data was subjected to statistical reliability Dunnet test. Efficacies of tested compounds in 30 mg/kg dose are depicted in Table 4.

[2] = in vivo; cited from earlier work
[3] = test system: Ba/F3 cells expressing either native or mutant (T315I) Bcr-Abl kinase; assay: Animal model of chronic myelogenous leukemia (Ba/F3 Bcr-Abl tumors in nude balb/c mice); format: in vivo, mouse; details: 30 mg/kg, oral gavage once daily, 10 days; ratio of mean tumor volume in therapeutic and control groups
Experimental: Ba/F3 cells expressing either native or mutant (T315I) Bcr-Abl kinase, were inoculated in the right flank of nude balb/c mouse (100 μl of cell suspension in serum-free medium, 3×10^6 cells/ml). Mice were randomly assigned to the groups upon tumor volume of ˜500 mm^3. Once daily vehicle (0.5% methylcellulose I in water) was given using oral gavage to the control group, and substance suspension was given to therapeutic group during 10 days. In a typical experiment malignant cells (e.g., K562 cells, or Ba/F3 cells, expressing native of mutated Bcr-Abl kinase) are injected to mouse with reduced immunity (e.g. nude or SCID mice). Tumor volume (mm^3) was calculated as follows: V=L×W^2×0.5, where L—tumor length in mm, W—width in mm. Ratio of the mean tumor volume in therapeutic and control groups (% T/C) was used to evaluate efficacy of tumor growth inhibition. Obtained data was subjected to statistical reliability Dunnet test. Efficacies of tested compounds in 30 mg/kg dose are depicted in Table 2.

SMILES: Cc1ccc(C(=O)Nc2ccc(CN3CC[C@@H](N(C)C)C3)c(C(F)(F)F)c2)cc1C#Cn1cnc2ccccc21 [drawing 129]
- % T/C (MV4-11 cells): <40%

SMILES: Cc1ccc(C(=O)Nc2ccc(CN3CC[C@@H](N(C)C)C3)c(C(F)(F)F)c2)cc1C#Cn1cnc2ccccc21 [drawing 141]
- % T/C (A549 cells): <40%

SMILES: Cc1ccc(C(=O)Nc2ccc(CN3CCN(C)CC3)c(C(F)(F)F)c2)cc1C#Cc1nnc2cc(C(=O)O)ccn12
- IC50 (Abl (T315I)): < 20 nM
- IC50 [1]: < 100 nM
- IC50 (Abl): < 20 nM

SMILES: Cc1ccc(C(=O)Nc2ccc(CN3CCN(C)CC3)c(C(F)(F)F)c2)cc1C#Cc1nnc2cccc(Cl)n12 [drawing 134]
- % T/C (HCT116 cells): <40%

SMILES: Cc1cn(-c2cc(NC(=O)c3ccc(C)c(Nc4nccc(-c5cccnc5)n4)c3)cc(C(F)(F)F)c2)cn1 [nilotinib]
- bioavailability [2]: 30%

SMILES: Cc1ccc(C(=O)Nc2ccc(CN3CCN(C)CC3)c(C(F)(F)F)c2)cc1C#Cc1nnc2ccccn12 [drawing 133]
- % T/C (HCT116 cells): <40%

SMILES: Cc1ccc(C(=O)Nc2ccc(CN3CCN(C)CC3)c(C(F)(F)F)c2)cc1C#Cc1nnc2ccccn12 [drawing 113]
- IC50 (Abl (T315I)): < 20 nM
- IC50 [1]: < 100 nM
- IC50 (Abl): < 20 nM

SMILES: Cc1ccc(C(=O)Nc2ccc(CN3CCN(C)CC3)c(C(F)(F)F)c2)cc1C#Cc1nnc2cccc(Cl)n12 [drawing 140]
- % T/C (A549 cells): <40%

SMILES: Cc1ccc2nnc(C#Cc3cc(C(=O)Nc4ccc(CN5CCN(C)CC5)c(C(F)(F)F)c4)ccc3C)n2n1 [drawing 138]
- % T/C (HCT116 cells): <40%

SMILES: Cc1ccc(C(=O)Nc2ccc(CN3CCN(C)CC3)c(C(F)(F)F)c2)cc1C#Cc1nnc2ccccn12 [drawing 121]
- % T/C [3]: <40%

SMILES: Cc1ccc(C(=O)Nc2ccc(CN3CCN(C)CC3)c(C(F)(F)F)c2)cc1C#Cc1nnc2cc(C(=O)O)cnn12
- IC50 (Abl (T315I)): < 20 nM
- IC50 [1]: < 100 nM
- IC50 (Abl): < 20 nM

SMILES: Cc1ccc(C(=O)Nc2ccc(CN3CCN(C)CC3)c(C(F)(F)F)c2)cc1C#Cc1nnc2ccccn12 [drawing 127]
- % T/C (MV4-11 cells): <40%

SMILES: Cc1ccc2nnc(C#Cc3cc(C(=O)Nc4ccc(CN5CCN(C)CC5)c(C(F)(F)F)c4)ccc3C)n2n1 [drawing 126]
- % T/C [3]: <40%

SMILES: Cc1ccc(C(=O)Nc2ccc(CN3CC[C@@H](N(C)C)C3)c(C(F)(F)F)n2)cc1C#Cn1cnc2ccccc21 [drawing 136]
- % T/C (HCT116 cells): <40%

SMILES: Cc1ccc(C(=O)Nc2ccc(CN3CCN(C)CC3)c(C(F)(F)F)c2)cc1C#Cc1nnc2ccccn12 [drawing 139]
- % T/C (A549 cells): <40%

SMILES: CN1CCN(Cc2ccc(NC(=O)c3ccc(F)c(C#Cc4nnc5ccccn45)c3)cc2C(F)(F)F)CC1
- IC50 (Abl (T315I)): < 20 nM
- IC50 [1]: < 100 nM
- IC50 (Abl): < 20 nM

SMILES: Cc1ccc(C(=O)Nc2ccc(CN3CCN(C)CC3)c(C(F)(F)F)c2)cc1C#Cn1cnc2cc(C(=O)O)ccc21
- IC50 (Abl (T315I)): < 20 nM
- IC50 [1]: < 100 nM
- IC50 (Abl): < 20 nM

SMILES: Cc1ccc(C(=O)Nc2ccc(CN3CC[C@@H](N(C)C)C3)c(C(F)(F)F)n2)cc1C#Cn1cnc2ccccc21 [drawing 124]
- % T/C [3]: <40%

SMILES: Cc1nc(Nc2ncc(C(=O)Nc3c(C)cccc3Cl)s2)cc(N2CCN(CCO)CC2)n1 [dasatinib]
- bioavailability [2]: 14-34%

SMILES: Cc1ccc2nnc(C#Cc3cc(C(=O)Nc4ccc(CN5CCN(C)CC5)c(C(F)(F)F)c4)ccc3C)n2n1 [drawing 144]
- % T/C (A549 cells): <40%

SMILES: Cc1ccc(C(=O)Nc2ccc(CN3CCN(C)CC3)c(C(F)(F)F)c2)cc1C#Cc1nnc2cc(F)ccn12 [drawing 131]
- % T/C (MV4-11 cells): <40%

SMILES: Cc1ccc(C(=O)Nc2ccc(CN3CCN(C)CC3)c(C(F)(F)F)c2)cc1C#Cc1nnc2cc(F)ccn12 [drawing 137]
- % T/C (HCT116 cells): <40%

SMILES: Cc1ccc(C(=O)Nc2ccc(CN3CCN(C)CC3)c(C(F)(F)F)c2)cc1C#Cc1nnc2cccnn12
- IC50 (Abl (T315I)): < 20 nM
- IC50 [1]: < 100 nM
- IC50 (Abl): < 20 nM

SMILES: Cc1ccc(C(=O)Nc2ccc(CN3CC[C@@H](N(C)C)C3)c(C(F)(F)F)c2)cc1C#Cn1cnc2ccccc21 [drawing 135]
- % T/C (HCT116 cells): <40%

SMILES: Cc1ccc(C(=O)Nc2ccc(CN3CCN(C)CC3)c(C(F)(F)F)c2)cc1C#Cc1nnc2cc(F)ccn12 [drawing 143]
- % T/C (A549 cells): <40%

SMILES: Cc1ccc(C(=O)Nc2ccc(CN3CC[C@@H](N(C)C)C3)c(C(F)(F)F)n2)cc1C#Cn1cnc2ccccc21 [drawing 130]
- % T/C (MV4-11 cells): <40%

SMILES: Cc1ccc(C(=O)Nc2ccc(CN3CCN(C)CC3)c(C(F)(F)F)c2)cc1C#Cc1nnc2cccc(Cl)n12 [drawing 122]
- % T/C [3]: <40%

SMILES: Cc1ccc2nnc(C#Cc3cc(C(=O)Nc4ccc(CN5CCN(C)CC5)c(C(F)(F)F)c4)ccc3C)n2n1 [drawing 132]
- % T/C (MV4-11 cells): <40%

SMILES: Cc1ccc(C(=O)Nc2ccc(CN3CC[C@@H](N(C)C)C3)c(C(F)(F)F)c2)cc1C#Cn1cnc2ccccc21 [drawing 123]
- % T/C [3]: <40%

SMILES: Cc1ccc(C(=O)Nc2ccc(CN3CCN(C)CC3)c(C(F)(F)F)c2)cc1C#Cc1nnc2cc(F)ccn12 [drawing 125]
- % T/C [3]: <40%

SMILES: Cc1ccc(C(=O)Nc2ccc(CN3CCN(C)CC3)c(C(F)(F)F)c2)cc1C#Cc1nnc2cc(C(N)=O)ccn12
- IC50 (Abl (T315I)): < 20 nM
- IC50 [1]: < 100 nM
- IC50 (Abl): < 20 nM

SMILES: Cc1ccc(C(=O)Nc2ccc(CN3CCN(C)CC3)c(C(F)(F)F)c2)cc1C#Cc1nnc2cccc(Cl)n12 [drawing 128]
- % T/C (MV4-11 cells): <40%

SMILES: Cc1ccc(C(=O)Nc2ccc(CN3CC[C@@H](N(C)C)C3)c(C(F)(F)F)n2)cc1C#Cn1cnc2ccccc21 [drawing 142]
- % T/C (A549 cells): <40%

SMILES: Cc1ccc(C(=O)Nc2ccc(CN3CCN(C)CC3)c(C(F)(F)F)c2)cc1C#Cc1cnc2cccnn12 [ponatinib]
- bioavailability [2]: 20%
